Consider six substances from patent publication US7053047B2, “Cyclic pentapeptides and their preparation” (Purzer Pharmaceutical Co., Ltd., priority 2002, dated 2006).

Marks after values point to notes of the source that are not given here.

Test [1] relates to thrombus. Kind of test: Thrombolytic effect in thrombolysis rat model (thrombus on bolt in arteriovenous polyethylene tube). The settings on record: for m, thrombus mass reduction: injected in 6 min, bolt weighed after 1 h, n = 8; for thrombolytic effect / potency (comparison in words): thrombolysis rat model, Tables 1 and 2. In kind it is in vivo, Wistar rat. On the procedure:
The thrombolytic effect was evaluated by thrombolysis rat model.
0.1 ml Wistar rat blood was poured into a glass tube (length, 15 mm; external diameter, 5.0 mm; internal diameter, 2.5 mm) which was fixed vertically and the bottom was sealed with a rubber stopper. A stainless steel bolt was inserted quickly, the bolt diameter was 0.2 mm and the length was 12 mm. 15 min later, the bolt containing thrombus was taken out from the glass tube and weighed exactly.
Male Wistar rat weighing 220 g–280 g were anesthetized with pentobarbital sodium (80 mg/kg, i.p). The right arteria carotis communis and the left vena jugulars externa were separated. The bolt containing thrombus was put in the polyethylene tube and one end was inserted into the left vena jugulars externa. 50 IU/kg of heparin sodium was injected as anticoagulant, and the other tube end was inserted into the right arteria carotis communis. At this time the blood flowed from the right arteria carotis to the left vena jugulars externa via the polyethylene tube. Then normal saline solution, UK, GP6A (SEQ ID NO: 26), P6A (SEQ ID NO: 25) and KP6A (SEQ ID NO: 27) were injected in 6 min. The bolt was taken out and weighed after 1 h. The data are listed in Table 1 and Table 2, statistical data analysis was carried out by using student's t test, p<0.05 was considered significant.

Test [2] concerns coronary artery and femoral artery blood flow. The note with it: dogs; cited from earlier work.
In test [3] the test system is coronary artery thrombosis. In words: Thrombolysis with tissue plasminogene activator in dogs with coronary artery thrombosis. It counts as in vivo. The note with it: injected i.v. together with tissue plasminogene activator. The source says: Peptide 6A is a degradation of fibrinogen β chain analogue which has been known to increase coronary artery and femoral artery blood flow. In 1978(1), peptide 6A was first isolated and purified from the β chain of human fibrinogen by Belew et al.(2). The composition of peptide 6A was confirmed as Ala-Arg-Pro-Ala-Lys (SEQ ID NO: 25). […] In 1997, the inventors prepared peptide 6A and its analogues by solution method and observed that these peptides have good potency for relaxing vascula, lowering blood pressure and anti-thrombosis. The synthetic techniques and functions of these compounds have been described in CN Patent No. 1146458.

Regarding H-Gly-Arg-Pro-Ala-LysOH (GRPAK; GP6A), the entries for the “m, thrombus mass reduction” value in test [1] (dosage 5 μmol/kg), in test [1] (dosage 10 μmol/kg) and in test [1] (dosage 20 μmol/kg) were 9.31 ± 3.94^a mg, 13.17 ± 4.13^a mg and 16.81 ± 544^a,b mg, respectively. Further, the “thrombolytic effect / potency (comparison in words)” value in test [1] is “much more thrombolytic potency than the others”.

Consider “H-Ala-Arg-Pro-Ala-LysOH (H-ARPAK-OH) [Compound P6A]”, for which the “coronary artery and femoral artery blood flow” value in test [2] was “increases coronary artery and femoral artery blood flow”. In addition, the “m, thrombus mass reduction” value in test [1] (dosage 5 μmol/kg) is 6.07 ± 2.14^a mg. For the same substance, the parameters of thrombolysis entry in test [3] is recorded as “no additional benefit on the parameters of thrombolysis”.

Consider “Cyclo(Ala-Arg-Pro-Ala-Lys) (ARPAK; cyclic; Cyclo P6A) [CycloP6A]”, for which the “m, thrombus mass reduction” value in test [1] (dosage 5 μmol/kg) is on record as 10.62 ± 3.15^a mg.

In the case of H-Lys-Arg-Pro-Ala-LysOH (KRPAK; KP6A), in test [1] (dosage 5 μmol/kg), the “m, thrombus mass reduction” value amounted to 0.28 ± 2.13 mg.

On to “Cyclo(Gly-Arg-Pro-Ala-Lys) (GRPAK; cyclic; Cyclo GP6A) [CycloGP6A]”, for which the “m, thrombus mass reduction” value in test [1] (dosage 5 μmol/kg) was 8.35 ± 2.76^a mg; in test [1] (dosage 10 μmol/kg), 17.31 ± 4.29^a mg; in test [1] (dosage 20 μmol/kg), 18.38 ± 2.08^a,b,c mg. In addition, the “thrombolytic effect compared with UK” value in test [1] (high concentration (>10 μmol) versus UK (2000 IU/Kg)) is recorded as “even better than UK”. In addition, the “thrombolytic effect / potency (comparison in words)” value in test [1] is listed as “much more thrombolytic potency than the others”.

“Cyclo(Lys-Arg-Pro-Ala-Lys) (KRPAK; cyclic; Cyclo KP6A) [CycloKP6A]”: the “m, thrombus mass reduction” value in test [1] (dosage 5 μmol/kg) is reported as 6.13 ± 2.31^a mg.
